Data taken from patent publication EP2229935A1, “Peptide derivatives or pharmaceutically acceptable salts thereof, method for producing the same, use of said derivatives and pharmaceutical composition” (Nebolsin, Vladimir Evgenievich, priority 1997, dated 1999).
Marks after values point to notes of the source that are not given here.

Experiments:
[1] = system: mongrel rats; test: Antiischemic activity: necrosis zone after coronary artery occlusion (myocardial infarction); format: in vivo; details: 4 hours after coronary artery occlusion, oral 4 days
Protocol: Antiischemic activity of a compound was assessed by an integral test, i.e. effect on the necrosis zone area following reproduction of myocardial infarction in mongrel rats weighing 250-300 g.
Effect of a compound on the necrosis zone area was studied in 4 hours after arterial occlusion in rats using a differential indicator method [Sernov L.N., Gatsura V.V. A differential indicator method for determinig ischemic and necrotic zone in experimental myocardial infarction in rats. Bulletin of Experimental Biology and Medicine (1989), No 5, pp. 534-535]. All the painful manipulations were performed on animals under Ethaminal anesthesia (Ethaminal - 40 mg/kg intraperitoneally). Experiment was carried out in 15 hours after the last compound administration. Each group included 8 animals.
Groups of animals: • Group 1 - intact control -administration of normal saline four times. • Groups 2 and 3 - oral administration of the compound III at doses respectively 50 and 500 µg/kg for 4 days. • Group 4 - single intraperitoneal administration of Nicorandil at a dose 1 mg/kg immediately after occlusion.

[2] = system: Lewis pulmonary carcinoma (LLC); test: LLC metastasizing with surgical resection of the primary tumor node, alone and with Cyclophosphane; format: in vivo, C57BL/6 female mice; details: day 29
Protocol: An important property of the compounds is their ability to manifest pharmacological activity on the model with resection of the primary tumor node and not to lower therapeutic efficacy of respective antitumor drugs. […] Surgical resection of the primary tumor node was performed by day 13 following tumor transplantation. The test anitumor compounds were administered according to two dosage regimens:
Dosage regimen 1 - animals were administered compound III from day 1 till day 13 of experiment at a dose 500 µg/kg (group 1); Cyclophosphane was administered intraperitoneally two times before operation with 96 hour interval at a dose 100 µg/kg (group 2); combined administration of compound III and Cyclophosphane was similar to administration of substances in groups 1 and 2 (group 3). Number of metastases was calculated by day 29 of experiment;
Dosage regimen 2 - animals were administered compound III from day 14 of experiment (commencement of administration 24 hours post operation) till day 28 (group 4); Cyclophosphane was administered twice post operation with 96 hour interval at a dose 100 µg/kg (group 5); combined administration of compound III and Cyclophosphane similar to administration of substances in groups 4 and 5 (group 6). Antimetastatic efficacy of the drugs was considered by day 29 of experiment.

[3] = system: mongrel guinea-pigs; details: po, 0.05 mg/kg
[4] = regimen 1, prior to operation: day 1 till day 13, 500 µg/kg
[5] = regimen 2, post operation: day 14 till day 28

## O=C(O)CCCC(=O)NCCc1c[nH]cn1 [compound III, N-GLUTARYLHISTAMINE]
[1]; 50 µg/kg
  Ischemia zone, percent to the total myocardial mass: 27,2 ± 2,8%
  Necrosis zone percent to myocardial zone: 56,8 ± 2,7%
  Necrosis zone, percent to the total myocardial mass: 15,4 ± 1,7%
[1]; 500 µg/kg
  Ischemia zone, percent to the total myocardial mass: 31,1 ± 3,1%
  Necrosis zone percent to myocardial zone: 54,3 ± 2,1%
  Necrosis zone, percent to the total myocardial mass: 17,8 ± 1,0%
[2]; [4]
  Mean number of metastases: 32.0 ± 11.8
  Metastasizing inhibition percent: 8.0%
  Metastasizing rate (%): 100%
[2]; [5]
  Mean number of metastases: 28.6 ± 8.5
  Metastasizing inhibition percent: 22.9%
  Metastasizing rate (%): 100%
[3]
  Anaphylactic index: 0.83*
  Seizures in percent: 13,3* percent
